Source: ChEMBL document CHEMBL1909046, “DrugMatrix in vitro pharmacology data”

Assays:
[1] = target: Mitogen-activated protein kinase 1 (Homo sapiens, UniProt P28482); assay: DRUGMATRIX: Protein Serine/Threonine Kinase, ERK2 enzyme inhibition (substrate: Myelin Basic Protein); set-up: species or system Escherichia coli; details: Not Active = under 50% inhibition at 10 µM
[2] = target: T1, Cysteinyl leukotriene receptor 1 (Homo sapiens, UniProt Q9Y271); format: cell membranes, CHO-K1, Membrane; details: cho-k1; further: in other assays of this panel Not Active means under 50% inhibition at 10 µM
T1 sequence (Q9Y271 whole entry): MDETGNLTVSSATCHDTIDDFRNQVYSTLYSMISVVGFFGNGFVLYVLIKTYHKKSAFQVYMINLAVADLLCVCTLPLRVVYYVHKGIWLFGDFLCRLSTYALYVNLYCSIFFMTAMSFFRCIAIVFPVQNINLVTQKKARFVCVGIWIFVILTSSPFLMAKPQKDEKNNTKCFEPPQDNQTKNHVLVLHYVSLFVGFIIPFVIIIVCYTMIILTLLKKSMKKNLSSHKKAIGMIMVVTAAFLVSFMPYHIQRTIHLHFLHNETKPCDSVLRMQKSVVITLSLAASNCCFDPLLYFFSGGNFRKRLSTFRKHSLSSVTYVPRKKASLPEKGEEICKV

[3] = DRUGMATRIX: Glutamate, Kainate radioligand binding (ligand: [3H] Kainic acid); format: cell membranes, Rattus norvegicus, Wistar, Brain, Membrane; details: Not Active = under 50% inhibition at 10 µM
[4] = DRUGMATRIX: GABAA, Muscimol, Central radioligand binding (ligand: [3H] Muscimol); format: cell membranes, Rattus norvegicus, Wistar, Brain, Membrane; details: Not Active = under 50% inhibition at 10 µM
[5] = DRUGMATRIX: beta-Lactamase enzyme inhibition (substrate: Nitrocefin); set-up: species or system Bacillus cereus; details: Not Active = under 50% inhibition at 10 µM
[6] = target: Cytochrome P450 2D6 (Homo sapiens, UniProt P10635); details: bti-tn-5b1-4; further: in other assays of this panel Not Active means under 50% inhibition at 10 µM
Cytochrome P450 2D6, sequence (P10635 whole entry): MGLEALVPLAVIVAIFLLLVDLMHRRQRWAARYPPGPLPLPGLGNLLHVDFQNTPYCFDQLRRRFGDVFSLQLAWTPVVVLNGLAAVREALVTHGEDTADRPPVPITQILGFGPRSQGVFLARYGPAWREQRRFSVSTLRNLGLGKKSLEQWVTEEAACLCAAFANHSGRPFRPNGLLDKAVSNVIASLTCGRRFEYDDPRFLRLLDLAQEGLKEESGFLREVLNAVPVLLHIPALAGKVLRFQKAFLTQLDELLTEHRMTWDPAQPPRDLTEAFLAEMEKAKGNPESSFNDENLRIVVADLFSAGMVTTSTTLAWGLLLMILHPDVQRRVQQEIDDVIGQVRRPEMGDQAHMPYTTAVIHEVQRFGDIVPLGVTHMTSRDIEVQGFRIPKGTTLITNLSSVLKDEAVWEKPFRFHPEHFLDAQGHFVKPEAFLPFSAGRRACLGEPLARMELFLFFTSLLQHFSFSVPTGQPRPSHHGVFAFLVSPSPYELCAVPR

[7] = DRUGMATRIX: Glutamate, NMDA, Phencyclidine radioligand binding (ligand: [3H] TCP); format: cell membranes, Rattus norvegicus, Wistar, Cerebral cortex, Membrane; details: Not Active = under 50% inhibition at 10 µM
[8] = target: cGMP-specific 3',5'-cyclic phosphodiesterase (Homo sapiens, UniProt O76074); assay: DRUGMATRIX: Phosphodiesterase PDE5 enzyme inhibition (substrate: [3H]cGMP + cGMP); format: tissue-based; details: platelet; Not Active = under 50% inhibition at 10 µM

Mitogen-activated protein kinase 1, sequence (P28482 whole entry): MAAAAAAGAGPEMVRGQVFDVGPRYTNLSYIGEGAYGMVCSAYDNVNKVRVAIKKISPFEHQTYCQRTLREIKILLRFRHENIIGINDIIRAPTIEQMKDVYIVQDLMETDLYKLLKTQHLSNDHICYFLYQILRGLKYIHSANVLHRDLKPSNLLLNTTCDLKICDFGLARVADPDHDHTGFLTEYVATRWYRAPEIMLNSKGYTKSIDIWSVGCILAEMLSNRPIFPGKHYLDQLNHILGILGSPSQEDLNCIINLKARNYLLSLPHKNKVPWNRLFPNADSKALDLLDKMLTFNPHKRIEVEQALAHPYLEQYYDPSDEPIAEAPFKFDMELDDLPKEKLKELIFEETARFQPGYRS

Compound | IC50 [1] | Ki [1] | IC50 [2] | Ki [2] | IC50 [3] | Ki [3] | IC50 [4] | Ki [4] | IC50 [5] | Ki [5] | IC50 [6] | Ki [6] | IC50 [7] | Ki [7] | IC50 [8] | Ki [8] | IC50 ([7]; read-out: IC50) | Ki ([7]; read-out: Ki)
COc1cc2c(c3oc(=O)c4c(c13)CCC4=O)[C@@H]1C=CO[C@@H]1O2 [AFLATOXIN] | Not Active | Not Active | Not Active | Not Active | Not Active | Not Active | Not Active | Not Active | Not Active | Not Active | Not Active | Not Active | Not Active | Not Active | Not Active | Not Active |  | 
N=C(N)NC(=O)c1nc(Cl)c(N)nc1N [AMILORIDE] | Not Active |  | Not Active |  | Not Active | Not Active | Not Active | Not Active | Not Active | Not Active | Not Active | Not Active | Not Active | Not Active | Not Active |  |  | 
Cc1cc(=O)n(-c2ccccc2)n1C [ANTIPYRINE] | Not Active |  | Not Active |  | Not Active | Not Active | Not Active | Not Active | Not Active | Not Active | Not Active | Not Active | Not Active | Not Active | Not Active |  |  | 
CN1C(=O)COc2c(C(=O)NC3CN4CCC3CC4)cc(Cl)cc21 (configuration not stated) [AZASETRON] | Not Active |  | Not Active |  | Not Active | Not Active | Not Active | Not Active | Not Active | Not Active | Not Active | Not Active | Not Active | Not Active | Not Active |  |  | 
C[C@H]1C[C@H]2[C@@H]3CCC4=CC(=O)C=C[C@]4(C)[C@@]3(Cl)[C@@H](O)C[C@]2(C)[C@@]1(O)C(=O)CO [BECLOMETHASONE] | Not Active |  | Not Active |  | Not Active | Not Active | Not Active | Not Active | Not Active | Not Active | Not Active | Not Active | Not Active | Not Active | Not Active |  |  | 
CCOC(=O)[C@H](CCc1ccccc1)N[C@H]1CCc2ccccc2N(CC(=O)O)C1=O [BENAZEPRIL] | Not Active |  | Not Active |  | Not Active | Not Active | Not Active | Not Active | Not Active | Not Active | Not Active | Not Active | Not Active | Not Active | Not Active |  |  | 
Nc1c(CC(=O)O)cccc1C(=O)c1ccc(Br)cc1 [BROMFENAC] | Not Active |  | Not Active |  | Not Active | Not Active | Not Active | Not Active | Not Active | Not Active | Not Active | Not Active | Not Active | Not Active | Not Active |  |  | 
O=C1CC2(CCCC2)CC(=O)N1CCCCN1CCN(c2ncccn2)CC1 [BUSPIRONE] | Not Active |  | Not Active |  | Not Active | Not Active | Not Active | Not Active | Not Active | Not Active | Not Active | Not Active | Not Active | Not Active | Not Active |  |  | 
C[C@@]12C(=O)OC(=O)[C@]1(C)[C@H]1CC[C@@H]2O1 [CANTHARIDIN] | Not Active |  | Not Active |  | Not Active | Not Active | Not Active | Not Active | Not Active | Not Active | Not Active | Not Active | Not Active | Not Active | Not Active |  |  | 
ClC(Cl)Cl [CHLOROFORM] | Not Active |  | Not Active |  | Not Active | Not Active | Not Active | Not Active | Not Active | Not Active | Not Active | Not Active | Not Active | Not Active | Not Active |  |  | 
C=C1CC[C@H](O)C/C1=C/C=C1\CCC[C@]2(C)[C@@H]([C@H](C)CCCC(C)C)CC[C@@H]12 [CHOLECALCIFEROL] | Not Active |  | Not Active |  | Not Active | Not Active | Not Active | Not Active | Not Active | Not Active | Not Active | Not Active | Not Active | Not Active | Not Active |  |  | 
C[N+](C)(C)CCO.[Cl-] [CHOLINE CHLORIDE] | Not Active |  | Not Active |  | Not Active | Not Active | Not Active | Not Active | Not Active | Not Active | Not Active | Not Active | Not Active | Not Active | Not Active |  |  | 
CC(=O)OCC(=O)[C@@]1(O)CC[C@H]2[C@@H]3CCC4=CC(=O)CC[C@]4(C)[C@H]3C(=O)C[C@@]21C [CORTISONE ACETATE] | Not Active |  | Not Active |  | Not Active | Not Active | Not Active | Not Active | Not Active | Not Active | Not Active | Not Active | Not Active | Not Active | Not Active |  |  | 
O=c1ccc2ccccc2o1 [COUMARIN] | Not Active |  | Not Active |  | Not Active | Not Active | Not Active | Not Active | Not Active | Not Active | Not Active | Not Active | Not Active | Not Active | Not Active |  |  | 
CN(C)/N=N/c1[nH]cnc1C(N)=O [DACARBAZINE] | Not Active |  | Not Active |  | Not Active | Not Active | Not Active | Not Active | Not Active | Not Active | Not Active | Not Active | Not Active | Not Active | Not Active |  |  | 
COc1ccc2c(c1)[C@]13CCCC[C@@H]1[C@H](C2)N(C)CC3 [DEXTROMETHORPHAN] | Not Active |  | Not Active |  | Not Active | Not Active | Not Active | Not Active | Not Active | Not Active | Not Active | Not Active |  |  | Not Active |  | 2420 nM | 1640 nM
CC(=O)Nc1c(I)c(NC(C)=O)c(I)c(C(=O)O)c1I [DIATRIZOIC ACID] | Not Active |  | Not Active |  | Not Active | Not Active | Not Active | Not Active | Not Active | Not Active | Not Active | Not Active | Not Active | Not Active | Not Active |  |  | 
COP(=O)(OC)OC=C(Cl)Cl [DICHLORVOS] | Not Active |  | Not Active |  | Not Active | Not Active | Not Active | Not Active | Not Active | Not Active | Not Active | Not Active | Not Active | Not Active | Not Active |  |  | 
